Measurements published in PubChem BioAssay AID1159557 (GlaxoSmithKline (GSK), 2015).
Active and inactive are the calls of the source. The rule behind the calls is not given here.

Tested on: Trypanosoma brucei growth inhibition
Experiment: T. brucei growth inhibition (AID 1159557);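 note: parasites exposed to compound for 48 h before the resazurin readout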

| IC50 | SMILES |
| --- | --- |
| 630 nM | CC(=O)Nc1ccc(-c2cnc(N)c(-c3nc4ccc(F)cc4[nH]3)c2)cc1 |
| > 40000 nM (inactive) | N#Cc1ccc(S(=O)(=O)N2CCN(Cc3cccc(-c4ccncc4)c3)CC2)cc1 |
| 16 nM | COc1ccc(OC)c(NC(=O)c2ccc([N+](=O)[O-])o2)c1 |
| 32000 nM | CN(Cc1cc2ccccc2s1)c1ncc2c(N)nc(N)nc2n1 |
| > 40000 nM (inactive) | Cc1nnnn1-c1cccc(C(=O)N2CCC[C@@]3(C)c4ncncc4CCC23)c1 (stereo partly specified) |
| 320 nM | Cc1ccccc1NS(=O)(=O)c1ccc2[nH]cc(C(=O)NC3CCCC3)c(=O)c2c1 |
| 4000 nM | COCc1cnc2c(c1SCc1c(F)cccc1Cl)c(=O)n(C)c(=O)n2C |
| 500 nM | O=C(NCCc1csc(-c2cccc(F)c2)n1)c1ccco1 |
| > 40000 nM (inactive) | CC(C(=O)Nc1ccc(Br)cc1)N1CCN(c2ccc([N+](=O)[O-])cc2)CC1 (stereo unspecified) |
| 16000 nM | COc1ccc(C2CC(c3ccc(NS(C)(=O)=O)cc3)=NN2C(=O)c2cccs2)cc1OC (stereo unspecified) |
| 250 nM | O=C(NCCc1ccn(-c2ccccc2)n1)C1CCCCC1 |
| 25000 nM | Cc1ccc2sc(NC(=O)Cn3cnc([N+](=O)[O-])n3)nc2c1 |
| > 40000 nM (inactive) | COc1ccc(CN(C)Cc2ccncc2)cc1-c1ccc(S(=O)(=O)NC2CCC2)s1 |
| > 40000 nM (inactive) | O=C(N1CCc2ccccc2CC1)C1(C(=O)N2CCC(n3c(=O)[nH]c4ncccc43)CC2)CC1 |
| > 40000 nM (inactive) | CC1=NN(C(=O)CCn2cnc([N+](=O)[O-])n2)C(O)(C(F)(F)F)C1 (stereo unspecified) |
| 20000 nM | Cc1c(C(C)NC(=O)Nc2cccc(Cl)c2)sc2ncnn12 (stereo unspecified) |
| 32000 nM | COc1cccc(-c2cc(C(F)(F)F)nc(-n3ccc([N+](=O)[O-])n3)n2)c1 |
| 4000 nM | O=C(Nc1nc(-c2ccc(S(=O)(=O)N3CCOCC3)cc2)cs1)c1ccc([N+](=O)[O-])cc1 |
| 500 nM | O=C(Nc1nc(-c2ccccn2)cs1)N1C[C@H]2C[C@@]2(c2ccccc2)C1 |
| 630 nM | O=C(Nc1nc(-c2ccccn2)cs1)c1ccccc1-n1cnnn1 |
| 250 nM | C[C@@H](Oc1cc(-n2cnc3ccc(O[C@H]4CCNC4)cc32)sc1C(N)=O)c1ccccc1Cl |
| 200 nM | O=C(NCCCn1cnc2ccccc21)c1ccc(NC(=O)c2ccco2)cc1 |
| 10000 nM | CC1(C)CCC(=Cc2ccc(Cl)cc2)CC1(O)Cn1ccnc1 (stereo unspecified) |
| 2500 nM | O=C(Nc1cccc(Cl)c1)Nc1ccc([N+](=O)[O-])cc1Cl |
| > 40000 nM (inactive) | COc1ccccc1-n1c(SCC(=O)Nc2ccc3c(c2)OCO3)nc2c(c1=O)SCC2 |
| > 40000 nM (inactive) | CC(c1cc(Cl)cc(Cl)c1)N(C)c1ncc2c(N)nc(N)nc2n1 (stereo unspecified) |

| IC50 | SMILES |
| --- | --- |
| 790 nM | N#Cc1ccc(C(=O)Nc2cccc(-c3cccc(CN4CCC(O)CC4)c3)c2)cc1 |
| 790 nM | c1ccc2[nH]c(-c3ccc(N4CCCC4)nc3)nc2c1 |
| 400 nM | Cc1occc1C(=O)Nc1ccccc1C(=O)Nc1nccs1 |
| 630 nM | C[C@@H](Oc1cc(-n2cnc3ccc(CC(O)CO)cc32)sc1C(N)=O)c1ccccc1Cl (stereo partly specified) |
| 5000 nM | O=C(CCCn1cnc([N+](=O)[O-])n1)Nc1cccc(Cl)c1 |
| 500 nM | CCCNC(=O)Nc1cccc(-c2nc3ncccc3o2)c1 |
| 500 nM | CN(CC1CCCO1)S(=O)(=O)c1ccc(C(=O)Nc2nc(-c3ccccn3)cs2)cc1 (stereo unspecified) |
| 32 nM | CC(=O)Nc1ccc(Nc2nccc(-c3cnn4ncccc34)n2)cc1C(F)(F)F |
| 130 nM | CC1CCCCN1C(=O)NCCc1coc(-c2ccc(F)cc2)n1 (stereo unspecified) |
| 7900 nM | CC(C)(C)c1cc(NC2CC2)nc(-c2ccccn2)n1 |
| 630 nM | CCn1c(-c2nonc2N)nc2c([C@@H](C)O)ncc(O[C@H](CN)c3ccccc3)c21 |
| 250 nM | COc1cc(NC(=O)Nc2cccc(CNC(=O)OC3CCCCC3)c2)ccc1-c1cnco1 |
| > 40000 nM (inactive) | Cc1cc(C)nc(N2CCC(N(Cc3cccnc3)C(=O)c3cccc(C#N)c3)CC2)n1 |
| 16000 nM | CS(=O)(=O)NC1CCC(Oc2cc3cnccc3cc2-c2ccsc2)CC1 (stereo unspecified) |
| 400 nM | NCc1ccc2c(Cl)cc(Cl)c(O)c2n1 |
| > 40000 nM (inactive) | CC(=O)Nc1nc(-c2cc(C)ccc2C)c(C)s1 |
| 13000 nM | CCOc1cc(NCCCN2CCN(C)CC2)c2ncccc2c1 |
| > 40000 nM (inactive) | CC(C)Oc1cccc(N2CCC(C(=O)N3CCCN(C(C)C)CC3)CC2)c1 |
| 400 nM | O=C(COc1ccccc1)Nc1ccccc1C(=O)Nc1nccs1 |
| 100 nM | CC(C)C[C@H](NC(=O)c1ccc(-c2ccccc2)o1)C(=O)NC1(C#N)CC1 |
| 25000 nM | O=C(CCc1ccc(-c2ccccc2)o1)N1CCN(c2ccc(O)cc2)CC1 |
| 400 nM | COc1ccc2nccc(NC(=O)C3(OC)CCN(CC(O)c4ccc5c(c4)OCCO5)CC3)c2n1 (stereo unspecified) |
| 20000 nM | COc1ccc(-c2cc(C)no2)cc1S(=O)(=O)Nc1ccc(C)c(C)c1 |
| 130 nM | Cc1nc2c(-c3cccs3)c(C)nn2c(NCCO)c1C |
| 500 nM | CCc1ccc2nc(NC(=O)c3cc(N4CCOCC4)ccn3)sc2c1 |
| 1000 nM | O=C(NCC1CCCCC1)c1cc(=O)c2ccccc2o1 |

| IC50 | SMILES |
| --- | --- |
| > 40000 nM (inactive) | Nc1nccc(-c2csc(Nc3ccc(Cl)cc3)n2)n1 |
| 7900 nM | Cc1cccc(NS(=O)(=O)c2ccc3c(c2)C(=O)c2cc(S(=O)(=O)Nc4cccc(C)c4C)ccc2-3)c1C |
| 13000 nM | CNc1nc(C)nc(N2CCc3cc(C(=O)NCc4ccc(-c5nccn5C)cc4Cl)ccc32)n1 |
| 6300 nM | O=C(COc1ncnc2cc([N+](=O)[O-])ccc12)NC(=O)NC1CCCCC1 |
| 320 nM | COc1ccc2ncc(=O)n(CCN3CC[C@H](NCc4ncc(Cl)c5[nH]ncc45)[C@H](O)C3)c2n1 |
| 79 nM | COc1ccc(-c2csc(NC(=O)c3ccc([N+](=O)[O-])s3)n2)cc1 |
| 3200 nM | O=C(Nc1nc(-c2ccccn2)cs1)C1CCc2ccccc2C1 (stereo unspecified) |
| 500 nM | NC(=O)c1ccccc1Nc1nc(NC2CCCCC2)nc2[nH]ccc12 |
| 1000 nM | COc1cccc(S(=O)(=O)Nc2ccc3c(c2)CC(N2CCC(NC(=O)C4CC4)CC2)C3)c1 (stereo unspecified) |
| > 40000 nM (inactive) | CC(=Cc1ccccc1)CN1CCC(=O)N(Cc2cccnc2)CC1 |
| > 40000 nM (inactive) | Cn1nc([N+](=O)[O-])nc1N1CCCCC1 |
| 10000 nM | CS(=O)(=O)c1ccc(CC(=O)Nc2nc(-c3ccc(Cl)s3)cs2)cc1 |
| 320 nM | Cc1ccccc1NS(=O)(=O)c1ccc2[nH]cc(C(=O)NC3CCCC(C)C3C)c(=O)c2c1 (stereo unspecified) |
| > 40000 nM (inactive) | CNc1cncc(C2CCCN2C(=O)Cc2ccc3ccccc3c2)n1 (stereo unspecified) |
| 790 nM | Cc1cc(Oc2cc(Cl)c(Cl)cc2Cl)n2ncnc2n1 |
| 13000 nM | Cn1nccc1-c1cc(OC(CN)c2ccccc2)cnc1-c1ccco1 (stereo unspecified) |
| 630 nM | COc1ccc2ncc(=O)n(CCN3CCOC(CNCc4ccc(C(F)(F)F)cc4F)C3)c2n1 (stereo unspecified) |
| > 40000 nM (inactive) | CCCCn1nnnc1CSc1nc(C)cc(C)c1C#N |
| 20000 nM | O=C(CN(Cc1ccccn1)Cc1ccccn1)NC1Cc2ccccc2C1 |
| 25000 nM | CCCN1CCN(Cc2ccc(S(=O)(=O)Nc3cccc(C)c3)cc2)CC1 |
| 250 nM | Cc1ccc(NC(=O)c2ccc([N+](=O)[O-])s2)cc1S(=O)(=O)N1CCOCC1 |
| 7900 nM | O=C(Nc1ncc([N+](=O)[O-])s1)C1CC1 |
| > 40000 nM (inactive) | CC(Cn1ccnc1)NC(=O)C1CC1c1cccc(Cl)c1Cl (stereo unspecified) |
| 13000 nM | Cc1nc2c(-c3nc(-c4ccc(N)cc4)n[nH]3)cccn2c1C |
| 320 nM | O=S1N=C(NCCCN(Cc2ccc(F)cc2)c2ccccn2)C(NCc2ccncc2)=N1 (stereo unspecified) |
| 50 nM | COc1ccc(NS(=O)(=O)c2cc(NC(=O)c3ccc([N+](=O)[O-])s3)ccc2OC)cc1 |

| IC50 | SMILES |
| --- | --- |
| 79 nM | CC(C)c1cc(Nc2cc(Cc3ccccc3)nc(NC3CCC(O)CC3)n2)n[nH]1 (stereo unspecified) |
| 6300 nM | COc1ccc(Nc2nccc(N(C)c3n[nH]c4c(F)cccc34)n2)cc1S(C)(=O)=O |
| > 40000 nM (inactive) | COc1cccc(-c2c(C)nn(-c3nc(N)nc(-c4ccccn4)n3)c2N)c1 |
| 1000 nM | O=C(Nc1ccccc1)Nc1nc(-c2ccccn2)cs1 |
| 790 nM | CC(C)n1c(-c2nonc2N)nc2cccc(OCCN3CCCC3)c21 |
| 1300 nM | COc1ccc(-c2cnc(NC(=O)c3ccc(F)cc3)n2C)cc1 |
| 320 nM | Cc1cc(NC(=O)c2ccc([N+](=O)[O-])s2)ccc1Br |
| 13 nM | Cc1cc(Nc2cc(C3CC3)[nH]n2)nc(N2CCC[C@H]2C(N)=O)n1 |
| 2000 nM | CS(=O)(=O)c1cccc(-c2cnc(N)c3c(-c4ccc(CO)cc4)csc23)c1 |
| 16000 nM | Cc1ccc(NC(=O)C(C)n2nc([N+](=O)[O-])c(Br)c2C)cc1Cl (stereo unspecified) |
| 200 nM | O=C(Nc1cccc(S(=O)(=O)Nc2ccc(Br)cc2)c1)c1ccc([N+](=O)[O-])s1 |
| 6300 nM | COc1ccc(-c2cnc(C)o2)cc1S(=O)(=O)Nc1ccc(C)cc1C |
| 25 nM | CC(=O)Nc1ccc(-c2csc(NC(=O)c3ccc([N+](=O)[O-])s3)n2)cc1 |
| 10000 nM | O=C(C1CCCCC1)N1CCN(c2nnc(-c3ccccc3)c3ccccc23)CC1 |
| 32000 nM | Cc1nn(-c2ccccc2)nc1CNC(=O)CN(Cc1ccccn1)Cc1ccccn1 |
| 10000 nM | Cc1nc(-c2ccc3c(c2)OCO3)sc1C(=O)NCc1ccc2c(c1)OCO2 |
| 1000 nM | Cc1nc(-c2ccncc2)ncc1C(C)NC(=O)c1ccc(Cl)s1 (stereo unspecified) |
| > 40000 nM (inactive) | CC(Cn1ccnc1)NC(=O)C=Cc1ccc(Cl)cc1 (stereo unspecified) |
| 63 nM | CNS(=O)(=O)c1ccccc1Nc1nc(Nc2cc(C)nn2C)ncc1Cl |
| 2500 nM | Nc1nc(-c2ccccn2)nc(N)c1Cc1c(F)cccc1Cl |
| 20000 nM | C=CCn1nc([N+](=O)[O-])nc1Oc1ccc(Cl)cc1Cl |
| > 40000 nM (inactive) | Cc1nccn1C1CCCN(C(=O)c2cc3c(F)cccc3s2)C1 (stereo unspecified) |
| 7.9 nM | Cc1cc(Nc2ccc(C#N)c(Cl)c2C)n[nH]1 |
| > 40000 nM (inactive) | CC1CN(Cc2ccc(C#N)cc2)CCN1c1ccc(NC(=O)c2ccccc2F)cc1 (stereo unspecified) |
| 5000 nM | CC(C)Nc1nccc(-c2c(-c3ccc(F)cc3)ncn2C2CCOCC2)n1 |

| SMILES | IC50 |
| --- | --- |
| COc1cc(C2SCC(=O)Nc3c2c(C)nn3-c2nc3ccccc3s2)cc(OC)c1O (stereo unspecified) | 6300 nM |
| Cc1[nH]nc2c1C(c1ccc(OCc3ccccc3F)cc1)SCC(=O)N2 (stereo unspecified) | 25000 nM |
| CC(C)(C)C(O)(CCc1ccc(Cl)cc1)Cn1cncn1 (stereo unspecified) | > 40000 nM (inactive) |
